Data from publication PMC11231114 (EJNMMI Research, 2024).
Values joined by “and” are separate entries in the source; they are usually repeats but may differ in a detail not shown here. Equal entries are not always repeated. Where two headings read alike, the source gives them in different places.

Assays:
rat hepatocytes = experiment: Metabolite profiling in cryopreserved hepatocytes (in vitro MetID); assay type: in vitro ADME; conditions: 1 µM SYN2, 37 °C
Experimental: (§1) The metabolite profiling and characterization experiment of SYN2 molecule (in vitro MetID, Admescope) was conducted to evaluate potential metabolic pathways. In order to characterize the metabolites of SYN2, the compound was incubated in cryopreserved rat, dog and human hepatocytes. Prior to the incubation, the hepatocytes were thawed, suspended in Williams medium E and then centrifuged to receive a target density of about 1 million cells/ml. A SYN2 solution of 1 µM was then added to the hepatocyte suspension and incubated at 37 °C for 0, 30 and 60 min. The incubations were stopped by the addition of acetonitrile, then frozen and centrifuged to remove precipitated proteins. Supernatants were then analysed with ultra-performance liquid chromatography (UPLC) and high-resolution mass spectrometry (HRMS).
(§2) Compound Discoverer (CD) was used for data mining with manual confirmation for metabolite profiling and characterization.

dog hepatocytes = experiment: as above; assay type: in vitro ADME; conditions: 1 µM SYN2, 37 °C
Experimental: as §1, §2

human hepatocytes = experiment: as above; assay type: in vitro ADME; conditions: 1 µM SYN2, 37 °C
Experimental: as §1, §2

[1] = cited from earlier work; for accumulation in cardiac tissue / heart/liver ratio / heart/lungs ratio: 1 h post-injection
[2] = cited from earlier work
[3] = available SPECT and PET tracers
[4] = human studies, exercise stress subjects
[5] = human studies, exercise stress subjects, listed as [^18F]flurpiridaz

CNc1ccc2cc3ccc(N)cc3[n+](CCF)c2c1 [M3]
Relative abundance of metabolites calculated as % of parent (SYN2), Rat (rat hepatocytes; 30 min): 27 % of parent | Relative abundance of metabolites calculated as % of parent (SYN2), Rat (rat hepatocytes; 60 min): 666 % of parent | Relative abundance of metabolites calculated as % of parent (SYN2), Dog (dog hepatocytes; 30 min): 9 % of parent | Relative abundance of metabolites calculated as % of parent (SYN2), Dog (dog hepatocytes; 60 min): 46 % of parent | Relative abundance of metabolites calculated as % of parent (SYN2), Human (human hepatocytes; 30 min): 1 % of parent | Relative abundance of metabolites calculated as % of parent (SYN2), Human (human hepatocytes; 60 min): 3 % of parent

[C-]#[N+]CC(C)(C)OC.[C-]#[N+]CC(C)(C)OC.[C-]#[N+]CC(C)(C)OC.[C-]#[N+]CC(C)(C)OC.[C-]#[N+]CC(C)(C)OC.[C-]#[N+]CC(C)(C)OC.[Tc] [[^99mTc]Tc-sestamibi]
accumulation in cardiac tissue [1]: 2.0 ± 0.3 %ID/g | heart/liver ratio [1]: 2.4 ± 0.2 | heart/lungs ratio [1]: 5.9 ± 0.5 | Effective dose [2, 3]: 0.0079 mSv/MBq | absorbed dose in kidneys [2]: 0.036 mSv/MBq

CN(C)c1ccc2cc3ccc(N(C)C)cc3nc2c1 [M4]
Relative abundance of metabolites calculated as % of parent (SYN2), Rat (rat hepatocytes; 30 min): Trace | Relative abundance of metabolites calculated as % of parent (SYN2), Dog (dog hepatocytes; 30 min): Trace | Relative abundance of metabolites calculated as % of parent (SYN2), Human (human hepatocytes; 30 min): 1 % of parent | Relative abundance of metabolites calculated as % of parent (SYN2), Human (human hepatocytes; 60 min): 1 % of parent

CC(C)(C)n1ncc(OCc2ccc(COCC[18F])cc2)c(Cl)c1=O [[^18F]Flurpiridaz]
accumulation in cardiac tissue [1]: 3.3 ± 0.3 %ID/g | heart/liver ratio [1]: 3.7 ± 0.2 | heart/lungs ratio [1]: 12.7 ± 1.4 | heart/blood ratio [1]: 13 | Effective dose [2, 3]: 0.015 mSv/MBq | Absorbed dose per administrated activity, Adrenals [2, 4]: 1.40E-02 mSv/MBq | Absorbed dose per administrated activity, Brain [2, 4]: 1.10E-02 mSv/MBq | Absorbed dose per administrated activity, Breasts [2, 4]: 1.00E-02 mSv/MBq | Absorbed dose per administrated activity, Gallbladder Wall [2, 4]: 1.50E-02 mSv/MBq | Absorbed dose per administrated activity, Heart Wall [2, 4]: 3.90E-02 mSv/MBq | Absorbed dose per administrated activity, Kidneys [2, 4]: 2.70E-02 mSv/MBq | Absorbed dose per administrated activity, Liver [2, 4]: 1.50E-02 mSv/MBq | Absorbed dose per administrated activity, Lower Large Intestine Wall [2, 4]: 1.40E-02 mSv/MBq | Absorbed dose per administrated activity, Lungs [2, 4]: 1.20E-02 mSv/MBq | Absorbed dose per administrated activity, Muscle [2, 4]: 1.20E-02 mSv/MBq | Absorbed dose per administrated activity, Osteogenic Cells [2, 4]: 2.00E-02 mSv/MBq | Absorbed dose per administrated activity, Ovaries [2, 4]: 1.40E-02 mSv/MBq | Absorbed dose per administrated activity, Pancreas [2, 4]: 1.50E-02 mSv/MBq | Absorbed dose per administrated activity, Red Marrow [2, 4]: 1.50E-02 mSv/MBq | Absorbed dose per administrated activity, Skin [2, 4]: 9.00E-03 mSv/MBq | Absorbed dose per administrated activity, Small Intestine [2, 4]: 1.40E-02 mSv/MBq | Absorbed dose per administrated activity, Spleen [2, 4]: 1.30E-02 mSv/MBq | Absorbed dose per administrated activity, Stomach Wall [2, 4]: 2.40E-02 mSv/MBq | Absorbed dose per administrated activity, Testes [2, 4]: 1.10E-02 mSv/MBq | Absorbed dose per administrated activity, Thymus [2, 4]: 1.30E-02 mSv/MBq | Absorbed dose per administrated activity, Thyroid [2, 4]: 1.40E-02 mSv/MBq | Absorbed dose per administrated activity, Total Body [2, 4]: 1.20E-02 mSv/MBq | Absorbed dose per administrated activity, Upper Large Intestine Wall [2, 4]: 1.40E-02 mSv/MBq | Absorbed dose per administrated activity, Urinary Bladder Wall [2, 4]: 1.60E-02 mSv/MBq | Absorbed dose per administrated activity, Uterus [2, 4]: 1.40E-02 mSv/MBq | Effective Dose Equivalent [2, 4]: 1.60E-02 mSv/MBq | Effective dose [2, 4]: 1.50E-02 mSv/MBq | Absorbed dose per administrated activity, Heart Wall [2, 5]: 0.0390 mSv/MBq and 0.039 mSv/MBq | Absorbed dose per administrated activity, Kidneys [2, 5]: 0.027 mSv/MBq | Absorbed dose per administrated activity, Stomach Wall [2, 5]: 0.024 mSv/MBq | Effective dose [2, 5]: 0.0150 mSv/MBq

[15OH2] [[^15O]H2O]
Effective dose [2, 3]: 0.0011 mSv/MBq

CCOCCP(CCOCC)CCP(CCOCC)CCOCC.CCOCCP(CCOCC)CCP(CCOCC)CCOCC.[O]=[99Tc+]=[O] [[^99mTc]Tc-tetrofosmin]
Effective dose [2, 3]: 0.0069 mSv/MBq

[82Rb+].[Cl-] [[^82Rb]Rubidium chloride]
Effective dose [2, 3]: 0.0011 mSv/MBq

[Cl][201Tl] [[^201Tl]Thallium chloride]
Effective dose [2, 3]: 0.14 mSv/MBq

[13NH3] [[^13N]Ammonia]
Effective dose [2, 3]: 0.002 mSv/MBq

CNc1ccc2cc3ccc(N(C)C)cc3[n+](CCF)c2c1 [M1]
Relative abundance of metabolites calculated as % of parent (SYN2), Rat (rat hepatocytes; 30 min): 94 % of parent | Relative abundance of metabolites calculated as % of parent (SYN2), Rat (rat hepatocytes; 60 min): 137 % of parent | Relative abundance of metabolites calculated as % of parent (SYN2), Dog (dog hepatocytes; 30 min): 34 % of parent | Relative abundance of metabolites calculated as % of parent (SYN2), Dog (dog hepatocytes; 60 min): 58 % of parent | Relative abundance of metabolites calculated as % of parent (SYN2), Human (human hepatocytes; 30 min): 10 % of parent | Relative abundance of metabolites calculated as % of parent (SYN2), Human (human hepatocytes; 60 min): 19 % of parent
